# Test results reported in PubChem BioAssay (NCI).
#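 Cultured in 96-well plates, cells were exposed to test compound for 48 hours across five concentrations. The concentration for full growth arrest is given as TGI.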
# What was measured:
# Experiment in all cases: NCI tumour cell line growth inhibition, 48 h
# LXFL 529 NSCLC = test system: LXFL 529 NSCLC
# SNB-78 CNS = test system: SNB-78 CNS
# U251 CNS = test system: U251 CNS
# RXF-631 renal = test system: RXF-631 renal
# PC-3 prostate = test system: PC-3 prostate
# MCF7 breast = test system: MCF7 breast
# TK-10 renal = test system: TK-10 renal
# K-562 leukemia = test system: K-562 leukemia
# SK-MEL-28 melanoma = test system: SK-MEL-28 melanoma
# SNB-75 CNS = test system: SNB-75 CNS
# UO-31 renal = test system: UO-31 renal
# SF-295 CNS = test system: SF-295 CNS
# DU-145 prostate = test system: DU-145 prostate
# BT-549 breast = test system: BT-549 breast
# CAKI-1 renal = test system: CAKI-1 renal
# M14 melanoma = test system: M14 melanoma
# COLO 205 colon = test system: COLO 205 colon
# HOP-18 NSCLC = test system: HOP-18 NSCLC
# OVCAR-8 ovarian = test system: OVCAR-8 ovarian
# MDA-N = test system: MDA-N
# NCI-H23 lung = test system: NCI-H23 lung
# ACHN renal = test system: ACHN renal
# KM20L2 colon = test system: KM20L2 colon
# MDA-MB-231 breast = test system: MDA-MB-231 breast
# CCRF-CEM leukemia = test system: CCRF-CEM leukemia
# HCT-15 colon = test system: HCT-15 colon
# RXF 393 renal = test system: RXF 393 renal
# T-47D breast = test system: T-47D breast
# SR leukemia = test system: SR leukemia
# SK-OV-3 ovarian = test system: SK-OV-3 ovarian
# RPMI-8226 leukemia = test system: RPMI-8226 leukemia
# MOLT-4 leukemia = test system: MOLT-4 leukemia
# SK-MEL-2 melanoma = test system: SK-MEL-2 melanoma
# HOP-62 NSCLC = test system: HOP-62 NSCLC
# HCC-2998 colon = test system: HCC-2998 colon
# XF 498 CNS = test system: XF 498 CNS
# HOP-92 NSCLC = test system: HOP-92 NSCLC
# LOX IMVI melanoma = test system: LOX IMVI melanoma
# A549 NSCLC = test system: A549 NSCLC
# OVCAR-3 ovarian = test system: OVCAR-3 ovarian
# NCI/ADR-RES ovarian = test system: NCI/ADR-RES ovarian
# HL-60(TB) leukemia = test system: HL-60(TB) leukemia
# OVCAR-4 ovarian = test system: OVCAR-4 ovarian
# EKVX NSCLC = test system: EKVX NSCLC
# OVCAR-5 ovarian = test system: OVCAR-5 ovarian
# SNB-19 CNS = test system: SNB-19 CNS
# UACC-62 melanoma = test system: UACC-62 melanoma
# SF-268 CNS = test system: SF-268 CNS
# SK-MEL-5 melanoma = test system: SK-MEL-5 melanoma
# SN12C renal = test system: SN12C renal
# SW-620 colon = test system: SW-620 colon
# SF-539 CNS = test system: SF-539 CNS
# IGROV1 ovarian = test system: IGROV1 ovarian
# DLD-1 colon = test system: DLD-1 colon
# NCI-H522 lung = test system: NCI-H522 lung
# HT29 colon = test system: HT29 colon
# UACC-257 melanoma = test system: UACC-257 melanoma
# MDA-MB-435 = test system: MDA-MB-435
# HCT-116 colon = test system: HCT-116 colon
# MALME-3M melanoma = test system: MALME-3M melanoma
# 786-0 renal = test system: 786-0 renal
# NCI-H226 lung = test system: NCI-H226 lung
# HS 578T breast = test system: HS 578T breast
# KM12 colon = test system: KM12 colon
# A498 renal = test system: A498 renal
# NCI-H460 lung = test system: NCI-H460 lung
# M19-MEL melanoma = test system: M19-MEL melanoma
# DMS 114 small cell lung = test system: DMS 114 small cell lung
# DMS 273 small cell lung = test system: DMS 273 small cell lung
compound,measurement,setting,value
CCCCCCC/C=C1\CCC(CN(C)C)C1=O (configuration not stated),TGI,LXFL 529 NSCLC,20.8 µM
same,TGI,SNB-78 CNS,35.8 µM
same,TGI,U251 CNS,32.1 µM
same,TGI,RXF-631 renal,> 71.4 µM
same,TGI,PC-3 prostate,27.6 µM
same,TGI,MCF7 breast,16.4 µM
same,TGI,TK-10 renal,16.5 µM
same,TGI,K-562 leukemia,9.53 µM
same,TGI,SK-MEL-28 melanoma,31 µM
same,TGI,SNB-75 CNS,33.1 µM
same,TGI,UO-31 renal,29.1 µM
same,TGI,SF-295 CNS,30.1 µM
same,TGI,DU-145 prostate,27.8 µM
same,TGI,BT-549 breast,28 µM
same,TGI,CAKI-1 renal,31.6 µM
same,TGI,M14 melanoma,23.6 µM
same,TGI,COLO 205 colon,25.5 µM
same,TGI,HOP-18 NSCLC,31.4 µM
same,TGI,OVCAR-8 ovarian,18 µM
same,TGI,MDA-N,26.8 µM
same,TGI,NCI-H23 lung,32.7 µM
same,TGI,ACHN renal,31.6 µM
same,TGI,KM20L2 colon,34.6 µM
same,TGI,MDA-MB-231 breast,8.72 µM
same,TGI,CCRF-CEM leukemia,13 µM
same,TGI,HCT-15 colon,21.7 µM
same,TGI,RXF 393 renal,12.1 µM
same,TGI,T-47D breast,26.7 µM
same,TGI,SR leukemia,9.17 µM
same,TGI,SK-OV-3 ovarian,43 µM
same,TGI,RPMI-8226 leukemia,5.26 µM
same,TGI,MOLT-4 leukemia,7 µM
same,TGI,SK-MEL-2 melanoma,29.8 µM
same,TGI,HOP-62 NSCLC,32.3 µM
same,TGI,HCC-2998 colon,32.1 µM
same,TGI,XF 498 CNS,35.4 µM
same,TGI,HOP-92 NSCLC,33.7 µM
same,TGI,LOX IMVI melanoma,15 µM
same,TGI,A549 NSCLC,50 µM
same,TGI,OVCAR-3 ovarian,18 µM
same,TGI,NCI/ADR-RES ovarian,14.6 µM
same,TGI,HL-60(TB) leukemia,9.09 µM
same,TGI,OVCAR-4 ovarian,33.6 µM
same,TGI,EKVX NSCLC,22.8 µM
same,TGI,OVCAR-5 ovarian,36.7 µM
same,TGI,SNB-19 CNS,33.8 µM
same,TGI,UACC-62 melanoma,28.7 µM
same,TGI,SF-268 CNS,35.8 µM
same,TGI,SK-MEL-5 melanoma,34 µM
same,TGI,SN12C renal,17.5 µM
same,TGI,SW-620 colon,18 µM
same,TGI,SF-539 CNS,32.7 µM
same,TGI,IGROV1 ovarian,36.3 µM
same,TGI,DLD-1 colon,20.9 µM
same,TGI,NCI-H522 lung,11.2 µM
same,TGI,HT29 colon,29.9 µM
same,TGI,UACC-257 melanoma,29.4 µM
same,TGI,MDA-MB-435,18.8 µM
same,TGI,HCT-116 colon,22.3 µM
same,TGI,MALME-3M melanoma,25.3 µM
same,TGI,786-0 renal,3.84 µM
same,TGI,NCI-H226 lung,48.4 µM
same,TGI,HS 578T breast,> 100 µM
same,TGI,KM12 colon,13.9 µM
same,TGI,A498 renal,35.6 µM
same,TGI,NCI-H460 lung,40.5 µM
CC(c1ccccc1)C(O)S(=O)(=O)O (configuration not stated),TGI,LXFL 529 NSCLC,> 100 µM
same,TGI,SNB-78 CNS,> 100 µM
same,TGI,U251 CNS,> 100 µM
same,TGI,RXF-631 renal,> 100 µM
same,TGI,M19-MEL melanoma,> 100 µM
same,TGI,TK-10 renal,> 100 µM
same,TGI,DMS 114 small cell lung,> 100 µM
same,TGI,SK-MEL-28 melanoma,> 100 µM
same,TGI,SNB-75 CNS,> 100 µM
same,TGI,UO-31 renal,> 100 µM
same,TGI,SF-295 CNS,> 100 µM
same,TGI,M14 melanoma,> 100 µM
same,TGI,COLO 205 colon,> 100 µM
same,TGI,HOP-18 NSCLC,> 100 µM
same,TGI,OVCAR-8 ovarian,> 100 µM
same,TGI,NCI-H23 lung,> 100 µM
same,TGI,ACHN renal,> 100 µM
same,TGI,KM20L2 colon,> 100 µM
same,TGI,CCRF-CEM leukemia,> 100 µM
same,TGI,HCT-15 colon,> 100 µM
same,TGI,RXF 393 renal,> 100 µM
same,TGI,SK-OV-3 ovarian,> 100 µM
same,TGI,RPMI-8226 leukemia,> 100 µM
same,TGI,MOLT-4 leukemia,> 100 µM
same,TGI,SK-MEL-2 melanoma,> 100 µM
same,TGI,XF 498 CNS,> 100 µM
same,TGI,HOP-92 NSCLC,> 100 µM
same,TGI,LOX IMVI melanoma,> 100 µM
same,TGI,A549 NSCLC,> 100 µM
same,TGI,OVCAR-3 ovarian,> 100 µM
same,TGI,OVCAR-4 ovarian,> 100 µM
same,TGI,EKVX NSCLC,> 100 µM
same,TGI,OVCAR-5 ovarian,> 100 µM
same,TGI,SNB-19 CNS,> 100 µM
same,TGI,UACC-62 melanoma,> 100 µM
same,TGI,SF-268 CNS,> 100 µM
same,TGI,SN12C renal,> 100 µM
same,TGI,SW-620 colon,> 100 µM
same,TGI,SF-539 CNS,> 100 µM
same,TGI,IGROV1 ovarian,> 100 µM
same,TGI,NCI-H522 lung,> 100 µM
same,TGI,HT29 colon,> 100 µM
same,TGI,UACC-257 melanoma,> 100 µM
same,TGI,DMS 273 small cell lung,> 100 µM
same,TGI,HCT-116 colon,> 100 µM
same,TGI,MALME-3M melanoma,> 100 µM
same,TGI,786-0 renal,> 100 µM
same,TGI,NCI-H226 lung,> 100 µM
same,TGI,KM12 colon,> 100 µM
same,TGI,A498 renal,> 100 µM
same,TGI,NCI-H460 lung,> 100 µM
